# According to PubChem BioAssay (NCI):
# Where “and” joins values, the source holds several entries; their conditions need not be identical. Identical values can stand only once.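 Tested at 5 concentrations; 48 h exposure; 96-well plates; endpoints linearly interpolated, else capped at highest concentration. GI50 is the concentration that inhibits growth by half. TGI marks complete inhibition of growth.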
# Experiments:
# Assay in all cases: NCI tumour cell line growth inhibition, 48 h
# HCT-15 colon = system: HCT-15 colon
# HS 578T breast = system: HS 578T breast
# M14 melanoma = system: M14 melanoma
# MDA-MB-231 breast = system: MDA-MB-231 breast
# OVCAR-5 ovarian = system: OVCAR-5 ovarian
# RXF 393 renal = system: RXF 393 renal
# SF-295 CNS = system: SF-295 CNS
# SK-MEL-2 melanoma = system: SK-MEL-2 melanoma
# SNB-19 CNS = system: SNB-19 CNS
# UACC-257 melanoma = system: UACC-257 melanoma
# UO-31 renal = system: UO-31 renal
SMILES,TGI (HCT-15 colon),TGI (HS 578T breast),TGI (M14 melanoma),TGI (MDA-MB-231 breast),TGI (OVCAR-5 ovarian),TGI (RXF 393 renal),TGI (SF-295 CNS),TGI (SK-MEL-2 melanoma),TGI (SNB-19 CNS),TGI (UACC-257 melanoma),TGI (UO-31 renal),GI50 (M14 melanoma),GI50 (MDA-MB-231 breast),GI50 (OVCAR-5 ovarian),GI50 (RXF 393 renal),GI50 (SF-295 CNS) [µM],GI50 (SK-MEL-2 melanoma) [µM],GI50 (SNB-19 CNS)
O=C1Oc2ccccc2C(=O)/C1=C/N1C(=O)N/C(=C\c2ccccc2O)C1=O,> 100 µM,> 100 µM,> 100 µM,> 100 µM,> 100 µM,> 100 µM,> 100 µM,> 100 µM,> 100 µM,> 100 µM,> 100 µM,,,,,,,
C=CCNC(=S)Nc1sc2c(c1C(=O)OCC)CC(C)CC2 (stereo unspecified),> 100 µM,> 100 µM,49.9 µM,57 µM,76 µM,83.9 µM,59.5 µM,48.4 µM,62.5 µM,43.5 µM,56.3 µM,,,,,,,
COc1cc(/C=C2/SC(c3ccccc3)N(c3ccc(NC(C)=O)cc3)C2=O)cc(OC)c1OC (stereo unspecified),> 100 µM,> 100 µM,> 100 µM,> 100 µM,> 100 µM,> 100 µM,> 100 µM,> 100 µM,> 100 µM,> 100 µM,> 100 µM,,,,,,,
O=S(=O)(c1ccc(Br)cc1)n1c2ccc(Br)cc2c2nc3ccccc3nc21,> 100 µM,> 100 µM,> 100 µM,> 100 µM,> 100 µM,53 µM,> 100 µM,> 100 µM,> 100 µM,> 100 µM,> 100 µM,,,,,,,
CN(C)CCNc1ccc(C(=O)NCCCN(C)CCCNC(=O)c2ccc(NCCN(C)C)c3c(=O)c4ccccc4[nH]c23)c2[nH]c3ccccc3c(=O)c12,38.5 µM,1.75 µM,1.53 µM,0.388 µM,1.1 µM,0.912 µM,1.91 µM,0.414 µM,1.92 µM,3.25 µM,15.8 µM,,,,,,,
O=C1c2c(F)c(F)c(F)c(F)c2SC2=NCCN12,7.56 µM,46.4 µM,14.1 µM,22.2 µM,29.2 µM,8.89 µM,32.4 µM,6.52 µM,29 µM,21.8 µM,22.5 µM,,,,,,,
OCCOc1ccc(-c2cc(-c3ccccn3)nc(-c3ccccn3)c2)cc1,> 40.6 µM,> 100 µM,3.91 µM,> 40.2 µM,12.1 µM,0.85 µM,> 100 µM,3.48 µM,> 100 µM,12.9 µM,1 µM,,,,,,,
c1ccc(CNC2CC(NCc3ccccn3)CC(NCc3ccccn3)C2)nc1 (stereo unspecified),> 75.2 µM and 25 µM and > 100 µM,53.3 µM and 25 µM and 85.5 µM,10.3 µM and 8.32 µM and 5.31 µM,5.21 µM and 12.5 µM and 4.56 µM,14.4 µM and 25 µM and 8.94 µM,4.11 µM and 9.03 µM and 3.83 µM,18.9 µM and 20.9 µM and 36.5 µM,6.86 µM and 11.5 µM and 12.2 µM,11.7 µM and 5.64 µM and 3.83 µM,21.4 µM and 9.81 µM,70.8 µM and > 25 µM and > 100 µM,3.15 µM and 1.39 µM and 2.35 µM,2.13 µM and 5.66 µM and 2.08 µM,3.66 µM and 14.4 µM and 2.89 µM,1.98 µM and 4.41 µM,5.03,3.4,3.42 µM and 1.64 µM and 1.96 µM
Cc1[nH]c2ncn(/N=C/c3ccccc3O)c(=N)c2c1Cc1ccccc1,> 100 µM,> 100 µM,> 100 µM,> 100 µM,> 100 µM,> 100 µM,> 100 µM,83.9 µM,> 100 µM,> 100 µM,> 100 µM,,,,,,,
CN1C/C(=C\c2cccs2)C2=NC(=S)NC(c3cccs3)C2C1 (stereo unspecified),> 100 µM,> 100 µM,> 100 µM,> 100 µM,> 100 µM,> 100 µM,> 100 µM,> 100 µM,> 100 µM,> 100 µM,> 100 µM,,,,,,,
CCOC(=O)c1cnc(-n2[nH]c(C)c(CCO)c2=O)[nH]c1=O,> 100 µM,> 100 µM,> 100 µM,> 100 µM,> 100 µM,> 100 µM,> 100 µM,> 100 µM,> 100 µM,> 100 µM,> 100 µM,,,,,,,
O=C1C2CCCCC2C(=O)N1n1c(Cc2ccc(Cl)cc2)n[nH]c1=O (stereo unspecified),> 100 µM,> 100 µM,> 100 µM,> 100 µM,> 100 µM,> 100 µM,> 100 µM,> 100 µM,> 100 µM,> 100 µM,> 100 µM,,,,,,,
CCC(C)[C@H](NC(=O)[C@H](Cc1ccccc1)NC(=O)N(CC)c1ccccc1)C(=O)N[C@@H](CC(C)C)C(=O)OC (stereo partly specified),> 100 µM,> 100 µM,> 100 µM,> 100 µM,> 100 µM,> 100 µM,> 100 µM,> 100 µM,> 100 µM,74.8 µM,67.2 µM,,,,,,,
O=C(CSCC(=O)N/N=C/c1cc(I)cc(I)c1O)N/N=C/c1cc(I)cc(I)c1O,> 100 µM,39 µM,43.6 µM,25.1 µM,82.5 µM,24.5 µM,47.1 µM,47.4 µM,36.6 µM,> 100 µM,44.5 µM,,,,,,,
COc1ccc2oc(=N)c(C(=O)Nc3cccc4ccccc34)cc2c1,> 100 µM,72.1 µM,> 100 µM,79.1 µM,> 100 µM,20 µM,25.4 µM,85.7 µM,48 µM,> 100 µM,30.5 µM,,,,,,,
O=C(c1ccccc1)c1ccc2c(c1)nc1n2C(c2c(Cl)cccc2Cl)SC1 (stereo unspecified),> 100 µM,> 100 µM,> 100 µM,> 100 µM,> 100 µM,> 100 µM,> 100 µM,> 100 µM,> 100 µM,> 100 µM,> 100 µM,,,,,,,
C=CCC1(O)c2ccccc2C(=O)c2c(O)ccc(O)c21 (stereo unspecified),> 75.7 µM,21.9 µM,27.5 µM,26 µM,60.4 µM,21.4 µM,> 51.9 µM,9.98 µM,68.6 µM,19 µM,52.6 µM,,,,,,,
C=C(C)[C@@]1(O)O[C@H]2C[C@@]3(C)OC(=CC3=O)/C(C)=C\[C@@H]3OC(=O)[C@@]1(C)[C@H]32,44 µM,> 100 µM,37.5 µM,43.9 µM,19.7 µM,26.8 µM,66.9 µM,> 56.3 µM,> 100 µM,> 63.5 µM,57 µM,,,,,,,
CN(C)c1nc2sc3c(c2c(=O)o1)CCCC3,> 100 µM,> 100 µM,> 100 µM,> 100 µM,> 100 µM,> 100 µM,> 100 µM,99.4 µM,> 100 µM,> 100 µM,> 100 µM,,,,,,,
COC(=O)c1c2c(cc3c1CC1(Cc4ccccc4C1=O)C3)CCC2 (stereo unspecified),> 100 µM,> 100 µM,> 100 µM,> 100 µM,> 100 µM,98.4 µM,> 100 µM,> 100 µM,> 100 µM,> 100 µM,> 100 µM,,,,,,,
O=S(=O)(Oc1ccc2oc3ccccc3c2c1-c1c(OS(=O)(=O)C(F)(F)F)ccc2oc3ccccc3c12)C(F)(F)F,> 100 µM,> 100 µM,> 100 µM,> 100 µM,> 100 µM,> 100 µM,> 100 µM,> 100 µM,> 100 µM,> 100 µM,> 100 µM,,,,,,,
C1=C\SS/C=C\SS/C=C\SS/C=C\SS/1,55.8 µM,> 100 µM,> 100 µM,> 100 µM,> 100 µM,> 100 µM,> 100 µM,> 100 µM,> 100 µM,> 100 µM,> 100 µM,,,,,,,
CNC(=O)c1ccccc1-[s+]1c2ccccc2c(=O)n1C (stereo unspecified),> 100 µM,> 100 µM,> 100 µM,> 100 µM,> 100 µM,> 100 µM,> 100 µM,> 100 µM,> 100 µM,> 100 µM,> 100 µM,,,,,,,
OCC1OC(c2scc3c(=S)nc[nH]c23)C(O)C1O (stereo unspecified),> 95.6 µM,6.52 µM,60.3 µM,> 69.2 µM,> 100 µM,> 100 µM,> 92.8 µM,> 65.6 µM,> 100 µM,> 46.4 µM,> 100 µM,,,,,,,
Nc1nc2c(=O)c3ccccc3sc2s1,> 100 µM,> 100 µM,> 100 µM,> 100 µM,> 100 µM,> 100 µM,> 100 µM,> 100 µM,> 100 µM,> 100 µM,> 100 µM,,,,,,,
O=C(Cc1ccccc1)NCCc1ccc(O)c(O)c1,> 100 µM,> 100 µM,> 100 µM,> 100 µM,> 100 µM,> 100 µM,> 100 µM,80.1 µM,> 100 µM,> 100 µM,> 100 µM,,,,,,,
CCOC(=O)c1cccc(NC(=O)CCl)c1,12.4 µM,11 µM,24.9 µM,14.5 µM,16.9 µM,9.9 µM,26.1 µM,8.57 µM,> 92.8 µM,14.1 µM,13.7 µM,,,,,,,
CCc1nn(CN2CCN(C)CC2)c(=S)n1/N=C\c1ccc(-c2ccc([N+](=O)[O-])cc2)o1,> 100 µM,> 100 µM,> 100 µM,> 100 µM,> 100 µM,82.5 µM,> 100 µM,> 100 µM,> 100 µM,> 100 µM,> 100 µM,,,,,,,
O=c1cc(CNC2CCCC2)[nH]c(=O)[nH]1,> 100 µM,> 100 µM,> 100 µM,> 100 µM,> 100 µM,> 100 µM,> 100 µM,> 100 µM,> 100 µM,> 100 µM,> 100 µM,,,,,,,
